Read-outs that look alike come from different tables or passages of the source.
Legend:
Assay in all cases: TGFα-shedding assay-based GPCR screening with chimeric Gα subunit proteins
Assay type in all cases: cell-based
[1] = biological target: T1, 348 GPCRs (Homo sapiens, UniProt O14842); details: 10µM, Favipiravir 100μM
T1 construct: expressed in transfected cells; host or cells: HEK293A

[2] = biological target: T2, 348 GPCRs (Homo sapiens, UniProt O75473); details: 10µM, Favipiravir 100μM
T2 construct: expressed in transfected cells; host or cells: HEK293A
T2 sequence (O75473 22-907): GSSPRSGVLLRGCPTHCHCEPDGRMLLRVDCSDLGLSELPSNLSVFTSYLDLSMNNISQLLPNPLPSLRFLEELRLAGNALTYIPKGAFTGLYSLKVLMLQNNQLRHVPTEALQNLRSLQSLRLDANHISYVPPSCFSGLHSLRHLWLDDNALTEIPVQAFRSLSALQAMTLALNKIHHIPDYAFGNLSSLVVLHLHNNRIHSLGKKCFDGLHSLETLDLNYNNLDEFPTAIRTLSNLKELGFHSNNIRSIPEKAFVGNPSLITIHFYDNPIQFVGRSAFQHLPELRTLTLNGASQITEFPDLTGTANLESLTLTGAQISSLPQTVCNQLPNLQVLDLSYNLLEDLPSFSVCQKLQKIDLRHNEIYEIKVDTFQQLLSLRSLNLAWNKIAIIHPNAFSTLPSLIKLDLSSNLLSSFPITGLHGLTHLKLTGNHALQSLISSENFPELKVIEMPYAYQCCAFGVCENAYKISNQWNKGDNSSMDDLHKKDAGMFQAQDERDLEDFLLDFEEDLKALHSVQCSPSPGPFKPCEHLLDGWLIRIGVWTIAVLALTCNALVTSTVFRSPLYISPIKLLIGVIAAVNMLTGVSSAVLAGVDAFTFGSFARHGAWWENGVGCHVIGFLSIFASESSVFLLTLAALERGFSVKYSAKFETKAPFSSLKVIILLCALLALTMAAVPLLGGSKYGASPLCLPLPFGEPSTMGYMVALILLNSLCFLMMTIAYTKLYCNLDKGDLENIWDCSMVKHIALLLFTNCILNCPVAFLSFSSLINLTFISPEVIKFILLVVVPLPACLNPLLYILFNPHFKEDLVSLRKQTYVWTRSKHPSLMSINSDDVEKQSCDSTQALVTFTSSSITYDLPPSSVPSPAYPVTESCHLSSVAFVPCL

[3] = biological target: 348 GPCRs (Homo sapiens, UniProt P30874); details: 10µM, Favipiravir 100μM
[4] = biological target: T3, 348 GPCRs (Homo sapiens, UniProt P30939); details: 5-HT1F (5-hydroxytryptamine receptor 1F); 10µM, Favipiravir 100μM
T3 construct: expressed in transfected cells; host or cells: HEK293A
T3 sequence (P30939 1-366): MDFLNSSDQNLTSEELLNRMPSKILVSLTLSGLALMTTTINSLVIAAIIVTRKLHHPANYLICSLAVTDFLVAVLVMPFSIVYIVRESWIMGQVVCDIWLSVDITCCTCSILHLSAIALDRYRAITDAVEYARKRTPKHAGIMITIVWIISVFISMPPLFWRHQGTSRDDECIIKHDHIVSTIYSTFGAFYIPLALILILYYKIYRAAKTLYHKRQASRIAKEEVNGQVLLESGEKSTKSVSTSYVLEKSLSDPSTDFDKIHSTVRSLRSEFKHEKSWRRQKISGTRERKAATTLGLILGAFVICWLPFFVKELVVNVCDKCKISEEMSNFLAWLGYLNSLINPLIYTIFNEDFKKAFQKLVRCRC

[5] = biological target: 348 GPCRs (Homo sapiens, UniProt P47872); details: SCTR (secretin receptor); 10µM, Favipiravir 100μM
[6] = biological target: T4, 348 GPCRs (Homo sapiens, UniProt P49286); details: 10µM, Favipiravir 100μM
T4 construct: expressed in transfected cells; host or cells: HEK293A
T4 sequence (P49286 1-362): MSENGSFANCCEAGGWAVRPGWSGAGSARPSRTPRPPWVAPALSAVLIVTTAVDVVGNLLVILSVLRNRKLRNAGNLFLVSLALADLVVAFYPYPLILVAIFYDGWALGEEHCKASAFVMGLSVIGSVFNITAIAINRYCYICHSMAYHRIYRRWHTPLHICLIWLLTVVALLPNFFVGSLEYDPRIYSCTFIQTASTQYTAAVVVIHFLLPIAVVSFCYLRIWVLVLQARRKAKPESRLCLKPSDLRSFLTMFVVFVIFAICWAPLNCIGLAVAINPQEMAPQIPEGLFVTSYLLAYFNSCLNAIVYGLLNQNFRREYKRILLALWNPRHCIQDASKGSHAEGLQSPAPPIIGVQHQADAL

[7] = biological target: T5, 348 GPCRs (Homo sapiens, UniProt P50391); details: 10µM, Favipiravir 100μM
T5 construct: expressed in transfected cells; host or cells: HEK293A

[8] = biological target: T6, 348 GPCRs (Homo sapiens, UniProt P51686); details: 10µM, Favipiravir 100μM
T6 construct: expressed in transfected cells; host or cells: HEK293A
T6 sequence (P51686 1-369): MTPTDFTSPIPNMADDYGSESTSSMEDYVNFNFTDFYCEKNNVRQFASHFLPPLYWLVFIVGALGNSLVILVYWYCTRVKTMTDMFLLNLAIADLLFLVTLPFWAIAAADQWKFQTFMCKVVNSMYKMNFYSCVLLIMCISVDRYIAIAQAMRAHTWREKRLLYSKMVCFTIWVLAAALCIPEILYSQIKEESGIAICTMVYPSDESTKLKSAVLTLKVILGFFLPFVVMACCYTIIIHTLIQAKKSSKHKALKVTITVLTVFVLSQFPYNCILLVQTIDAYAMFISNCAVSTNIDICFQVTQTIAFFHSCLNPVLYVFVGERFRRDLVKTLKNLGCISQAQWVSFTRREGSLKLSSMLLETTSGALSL

[9] = biological target: T7, 348 GPCRs (Homo sapiens, UniProt Q8TDT2); details: 10µM, Favipiravir 100μM
T7 construct: expressed in transfected cells; host or cells: HEK293A

[10] = FFA1 (free fatty acid receptor 1), read-out: % GPCR activation compared to TPA
[11] = LGR5 (leucine-rich repeat containing G protein-coupled receptor 5), read-out: % GPCR activation compared to TPA
[12] = SSTR2 (somatostatin receptor 2), read-out: % GPCR activation compared to TPA
[13] = MT2R (melatonin receptor type 1B), read-out: % GPCR activation compared to TPA
[14] = NPY4R (neuropeptide Y receptor Y4), read-out: % GPCR activation compared to TPA
[15] = CCR9 (chemokine (C-C motif) receptor 9), read-out: % GPCR activation compared to TPA
[16] = GPR152 (G Protein-Coupled Receptor 152), read-out: % GPCR activation compared to TPA
[17] = read-out: % GPCR activation compared to TPA, FFA1 (free fatty acid receptor 1)
[18] = read-out: % GPCR activation compared to TPA, LGR5 (leucine-rich repeat containing G protein-coupled receptor 5)
[19] = read-out: % GPCR activation compared to TPA, SSTR2 (somatostatin receptor 2)
[20] = read-out: % GPCR activation compared to TPA, MT2R (melatonin receptor type 1B)
[21] = read-out: % GPCR activation compared to TPA, NPY4R (neuropeptide Y receptor Y4)
[22] = read-out: % GPCR activation compared to TPA, CCR9 (chemokine (C-C motif) receptor 9)
[23] = read-out: % GPCR activation compared to TPA, GPR152 (G Protein-Coupled Receptor 152)

T7 sequence (Q8TDT2 whole entry): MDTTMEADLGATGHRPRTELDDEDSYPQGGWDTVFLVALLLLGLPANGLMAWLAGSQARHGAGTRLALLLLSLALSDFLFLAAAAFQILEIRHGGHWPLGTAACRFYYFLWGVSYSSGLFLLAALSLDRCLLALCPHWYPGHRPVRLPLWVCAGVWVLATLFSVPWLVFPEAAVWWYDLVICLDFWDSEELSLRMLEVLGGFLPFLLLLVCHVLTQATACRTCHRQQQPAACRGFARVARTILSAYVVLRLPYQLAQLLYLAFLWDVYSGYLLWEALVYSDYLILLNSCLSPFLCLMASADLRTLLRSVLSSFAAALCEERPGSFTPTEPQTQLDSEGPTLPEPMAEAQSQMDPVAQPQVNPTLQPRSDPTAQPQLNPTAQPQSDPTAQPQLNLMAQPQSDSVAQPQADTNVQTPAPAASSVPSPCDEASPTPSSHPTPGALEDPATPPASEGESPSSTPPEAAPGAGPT
T5 sequence (P50391 whole entry): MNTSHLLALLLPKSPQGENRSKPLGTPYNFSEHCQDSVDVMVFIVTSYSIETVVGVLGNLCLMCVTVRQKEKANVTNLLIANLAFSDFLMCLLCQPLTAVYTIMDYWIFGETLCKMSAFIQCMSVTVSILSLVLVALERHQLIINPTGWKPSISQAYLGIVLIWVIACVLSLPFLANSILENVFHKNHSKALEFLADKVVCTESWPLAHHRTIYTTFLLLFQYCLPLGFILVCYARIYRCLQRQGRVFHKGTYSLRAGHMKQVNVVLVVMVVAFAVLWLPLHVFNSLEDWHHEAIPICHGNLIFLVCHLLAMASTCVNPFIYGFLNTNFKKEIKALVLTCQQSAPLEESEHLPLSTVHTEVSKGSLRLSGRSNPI
Chain of 348 GPCRs (Homo sapiens, UniProt P30874) (P30874 whole entry): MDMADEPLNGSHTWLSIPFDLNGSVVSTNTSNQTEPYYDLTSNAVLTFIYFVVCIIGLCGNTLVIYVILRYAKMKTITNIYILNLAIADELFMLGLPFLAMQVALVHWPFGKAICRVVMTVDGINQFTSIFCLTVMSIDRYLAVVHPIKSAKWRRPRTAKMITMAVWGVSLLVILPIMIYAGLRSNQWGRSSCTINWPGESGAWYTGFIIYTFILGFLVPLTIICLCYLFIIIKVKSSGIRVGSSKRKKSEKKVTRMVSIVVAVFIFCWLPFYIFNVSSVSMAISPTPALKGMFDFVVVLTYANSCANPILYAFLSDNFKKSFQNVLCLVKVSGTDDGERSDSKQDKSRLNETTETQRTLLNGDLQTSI
T1 sequence (O14842 whole entry): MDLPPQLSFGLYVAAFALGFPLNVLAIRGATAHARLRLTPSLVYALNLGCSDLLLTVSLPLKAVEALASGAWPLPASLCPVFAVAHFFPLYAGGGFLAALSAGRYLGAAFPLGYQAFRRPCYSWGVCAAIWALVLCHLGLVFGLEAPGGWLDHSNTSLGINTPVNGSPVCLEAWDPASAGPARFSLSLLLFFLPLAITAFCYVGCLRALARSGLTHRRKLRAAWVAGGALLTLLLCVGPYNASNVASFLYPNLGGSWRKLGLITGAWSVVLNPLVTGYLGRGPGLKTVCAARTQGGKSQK
Chain of 348 GPCRs (Homo sapiens, UniProt P47872) (P47872 23-440): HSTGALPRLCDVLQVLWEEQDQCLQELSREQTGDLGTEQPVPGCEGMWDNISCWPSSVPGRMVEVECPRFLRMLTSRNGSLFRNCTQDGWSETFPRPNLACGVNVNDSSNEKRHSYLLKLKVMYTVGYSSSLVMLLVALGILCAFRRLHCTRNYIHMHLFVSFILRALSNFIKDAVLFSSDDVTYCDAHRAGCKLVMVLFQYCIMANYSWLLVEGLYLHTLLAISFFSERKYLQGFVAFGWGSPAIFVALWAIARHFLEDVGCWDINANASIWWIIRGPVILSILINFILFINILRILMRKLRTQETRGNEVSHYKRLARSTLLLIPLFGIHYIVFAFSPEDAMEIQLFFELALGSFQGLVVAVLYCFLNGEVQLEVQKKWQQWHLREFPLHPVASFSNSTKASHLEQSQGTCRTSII

N#C[C@@]1(c2ccc3c(N)ncnn23)O[C@H](CO)[C@@H](O)[C@H]1O [GS441524]
activation at 10 µM [1, 10]: -14.2%
activation at 100 µM [2, 11]: -2.87%
activation at 10 µM [3, 12]: -0.998%
% GPCR activation compared to TPA [4]: 0.3563%
% GPCR activation compared to TPA [5]: 0.8944%
activation at 10 µM [6, 13]: -2.97%
activation at 100 µM [7, 14]: -1.48%
activation at 10 µM [8, 15]: 2.4%
activation at 10 µM [9, 16]: -0.232%

CC(C)OC(=O)[C@H](C)N[P@](=O)(OC[C@H]1O[C@@H](n2ccc(=O)[nH]c2=O)[C@](C)(F)[C@@H]1O)Oc1ccccc1 [sofosbuvir]
activation at 10 µM [1, 17]: -1.47%
activation at 100 µM [2, 18]: -3.95%
activation at 10 µM [3, 19]: -1.14%
% GPCR activation compared to TPA [4]: -0.8157%
% GPCR activation compared to TPA [5]: 0.153%
activation at 10 µM [6, 20]: -2.8%
activation at 100 µM [7, 21]: -0.849%
activation at 10 µM [8, 22]: -0.977%
activation at 10 µM [9, 23]: 1.86%

CCC(CC)COC(=O)[C@H](C)N[P@](=O)(OC[C@H]1O[C@@](C#N)(c2ccc3c(N)ncnn23)[C@H](O)[C@@H]1O)Oc1ccccc1 [remdesivir]
activation at 10 µM [1, 17]: -6.96%
activation at 100 µM [2, 18]: 12.4%
activation at 10 µM [3, 19]: 0.304%
% GPCR activation compared to TPA [4]: -2.148%
% GPCR activation compared to TPA [5]: -0.9507%
activation at 10 µM [6, 20]: -2.11%
activation at 100 µM [7, 21]: -1.2%
activation at 10 µM [8, 22]: -0.902%
activation at 10 µM [9, 23]: -0.751%

CC(C)C(=O)OC[C@H]1O[C@@H](n2ccc(NO)nc2=O)[C@H](O)[C@@H]1O [molnupiravir]
activation at 10 µM [1, 10]: -2.86%
activation at 100 µM [2, 11]: -3.75%
activation at 10 µM [3, 12]: -0.658%
% GPCR activation compared to TPA [4]: 0.7188%
% GPCR activation compared to TPA [5]: -0.08366%
activation at 10 µM [6, 13]: -1.78%
activation at 100 µM [7, 14]: -1.31%
activation at 10 µM [8, 15]: -1.34%
activation at 10 µM [9, 16]: -1.29%

NC(=O)c1nc(F)cnc1O [favipiravir, 6-fluoro-3-hydroxy-2-pyrazinecarboxamide]
activation at 10 µM [1, 10]: -4.93%
activation at 100 µM [2, 11]: -2.31%
activation at 10 µM [3, 12]: -0.842%
% GPCR activation compared to TPA [4]: 1.629%
% GPCR activation compared to TPA [5]: -0.5125%
activation at 10 µM [6, 13]: -4.78%
activation at 100 µM [7, 14]: -2.23%
activation at 10 µM [8, 15]: 2.47%
activation at 10 µM [9, 16]: -0.401%
